Reference: ChEMBL document CHEMBL5321224, “Antimicrobial peptides: Structure, mechanism, and modification” (2023)
Each block holds one compound with its values, some of them ahead of it. Calls of active or inactive are those of the source. The calls are words filed in the database; no cut-off is given here. Non-standard residues stand in square brackets, D forms with d. Residues, ends and D or L forms follow the SMILES beside them. βAla = NCCC(=O)O

What was measured:
Format in all cases: functional
Pseudomonas aeruginosa [1] = test: Antimicrobial activity against Pseudomonas aeruginosa assessed as reduction of microbial growth
Escherichia coli [2] = test: Antimicrobial activity against Escherichia coli assessed as reduction of microbial growth
Staphylococcus aureus [3] = test: Antimicrobial activity against Staphylococcus aureus assessed as reduction of microbial growth
Escherichia coli [4] = test: Antimicrobial activity against Escherichia coli assessed as reduction of microbial growth incubated for 18 to 24 hrs by microdilution method; conditions: time 18-24 hrs
Staphylococcus aureus [5] = test: Antimicrobial activity against Staphylococcus aureus assessed as reduction of microbial growth incubated for 18 to 24 hrs by microdilution method; conditions: time 18-24 hrs
Pseudomonas aeruginosa [6] = test: Antimicrobial activity against Pseudomonas aeruginosa assessed as reduction of microbial growth incubated for 18 to 24 hrs by microdilution method; conditions: time 18-24 hrs
Pseudomonas aeruginosa [7] = test: Antimicrobial activity against Pseudomonas aeruginosa assessed as reduction of microbial growth incubated overnight
Staphylococcus aureus [8] = test: Antimicrobial activity against Staphylococcus aureus assessed as reduction of microbial growth incubated overnight
Escherichia coli [9] = test: Antimicrobial activity against Escherichia coli assessed as reduction of microbial growth incubated overnight
Escherichia coli [10] = test: Antimicrobial activity against Escherichia coli assessed as reduction of microbial growth incubated for 24 hrs
Staphylococcus aureus [11] = test: Antimicrobial activity against Staphylococcus aureus assessed as reduction of microbial growth incubated for 24 hrs
Pseudomonas aeruginosa [12] = test: Antimicrobial activity against Pseudomonas aeruginosa assessed as reduction of microbial growth incubated for 24 hrs
Staphylococcus aureus [13] = test: Antimicrobial activity against Staphylococcus aureus
Pseudomonas aeruginosa [14] = test: Antimicrobial activity against Pseudomonas aeruginosa
Escherichia coli [15] = test: Antimicrobial activity against Escherichia coli
Pseudomonas aeruginosa [16] = test: Antimicrobial activity against Pseudomonas aeruginosa assessed as reduction of microbial growth incubated for 6 to 9 hr by macrodilution method; conditions: time 6-9 hrs
Escherichia coli [17] = test: Antimicrobial activity against Escherichia coli assessed as reduction of microbial growth incubated for 6 to 9 hr by macrodilution method; conditions: time 6-9 hrs
Staphylococcus aureus [18] = test: Antimicrobial activity against Staphylococcus aureus assessed as reduction of microbial growth incubated for 6 to 9 hr by macrodilution method; conditions: time 6-9 hrs

Compound: CC[C@H](C)[C@H](NC(=O)CN)C(=O)NCC(=O)N[C@@H](C)C(=O)N[C@H](C(=O)N[C@@H](CC(C)C)C(=O)N[C@@H](CCCCN)C(=O)N[C@H](C(=O)N[C@@H](CC(C)C)C(=O)N[C@H](C(=O)N[C@H](C(=O)NCC(=O)N[C@@H](CC(C)C)C(=O)N[C@@H](CCCCN)C(=O)N[C@@H](Cc1c[nH]c2ccccc12)C(=O)N[C@@H](CCCCN)C(=O)N[C@@H](CC(C)C)C(=O)N[C@@H](Cc1ccccc1)C(=O)N[C@@H](CCCCN)C(=O)N[C@@H](CCCCN)C(=O)N[C@H](C(=O)N[C@@H](CCC(=O)O)C(=O)N[C@@H](CCCCN)C(=O)N[C@H](C(=O)NCC(=O)N[C@@H](CCC(N)=O)C(=O)O)C(C)C)[C@@H](C)CC)[C@@H](C)O)[C@@H](C)O)C(C)C)C(C)C
LD (Pseudomonas aeruginosa [7]): 5 µM
LD (Staphylococcus aureus [8]): 5 µM
LD (Escherichia coli [9]): 1 µM

Compound: H-KWKLFKKIEKVGQNIRDGGIGAVLKV-OH
LD (Escherichia coli [10]): 1 µM
LD (Staphylococcus aureus [11]): 600 µM
LD (Pseudomonas aeruginosa [12]): 15 µM

Compound: H-KWKLFKKVLKVLTTG-OH
LD (Staphylococcus aureus [13]): 8 µM
LD (Pseudomonas aeruginosa [14]): 2 µM
LD (Escherichia coli [15]): 0.5 µM

Compound: CC[C@H](C)[C@H](NC(=O)CN)C(=O)NCC(=O)N[C@@H](C)C(=O)N[C@H](C(=O)N[C@@H](CC(C)C)C(=O)N[C@@H](CCCCN)C(=O)N[C@H](C(=O)N[C@@H](CC(C)C)C(=O)N[C@H](C(=O)N[C@H](C(=O)NCC(=O)N[C@@H](CC(C)C)C(=O)N[C@@H](CCCCN)C(=O)N[C@@H](Cc1c[nH]c2ccccc12)C(=O)N[C@@H](CCCCN)C(=O)N[C@@H](CC(C)C)C(=O)N[C@@H](Cc1ccccc1)C(=O)N[C@@H](CCCCN)C(=O)N[C@@H](CCCCN)C(=O)N[C@H](C(=O)N[C@@H](CCC(=O)O)C(=O)N[C@@H](CCCCN)C(=O)N[C@H](C(=O)NCC(=O)N[C@@H](CCC(N)=O)C(=O)N[C@@H](CC(N)=O)C(=O)N[C@H](C(=O)N[C@@H](CCCNC(=N)N)C(=O)N[C@@H](CC(=O)O)C(=O)NCC(=O)N[C@H](C(=O)N[C@H](C(=O)N[C@@H](CCCCN)C(=O)N[C@@H](C)C(=O)O)[C@@H](C)CC)[C@@H](C)CC)[C@@H](C)CC)C(C)C)[C@@H](C)CC)[C@@H](C)O)[C@@H](C)O)C(C)C)C(C)C
LD (Escherichia coli [10]): 0.7 µM
LD (Staphylococcus aureus [11]): 5 µM
LD (Pseudomonas aeruginosa [12]): 8 µM

Compound: H-GIGKFLHSAKKFGKAFVGEIMNS-OH [MAGAININ 2]
MIC (Escherichia coli [4]): 50 µg/mL
MIC (Pseudomonas aeruginosa [1]): inactive
MIC (Staphylococcus aureus [5]): ≥ 100 µg/mL
MIC (Escherichia coli [2]): 1 µg/mL
MIC (Pseudomonas aeruginosa [6]): 50 µg/mL
MIC (Staphylococcus aureus [3]): inactive

Compound: H-FLHSAKKFGKAFVGEIMNS-OH
MIC (Pseudomonas aeruginosa [1]): inactive
MIC (Escherichia coli [2]): 200 µg/mL
MIC (Staphylococcus aureus [3]): inactive

Compound: H-KWKLFKKGIGAVLKV-OH
LD (Staphylococcus aureus [13]): 29 µM
LD (Pseudomonas aeruginosa [14]): 15 µM
LD (Escherichia coli [15]): 4 µM

Results, then the compound that gave them:

MIC (Pseudomonas aeruginosa [1]): 256 µg/mL
MIC (Escherichia coli [2]): 128 µg/mL
MIC (Staphylococcus aureus [3]): > 256 µg/mL
Compound: H-GIGKFLHSAKKFGKAFVGEIMNS-NH2

MIC (Escherichia coli [4]): 50 µg/mL
MIC (Staphylococcus aureus [5]): 3.1 µg/mL
MIC (Pseudomonas aeruginosa [6]): 3.1 µg/mL
Compound: H-GIGKFLHSAKKFGKAFVGEIMNSKKKKKKKKKK-OH

MIC (Pseudomonas aeruginosa [1]): inactive
MIC (Escherichia coli [2]): 20 µg/mL
MIC (Staphylococcus aureus [3]): inactive
Compound: H-KFLHSAKKFGKAFVGEIMNS-OH

MIC (Escherichia coli [4]): 3.12 µg/mL
MIC (Staphylococcus aureus [5]): 25 µg/mL
MIC (Pseudomonas aeruginosa [6]): 6.25 µg/mL
Compound: H-RRRRRRRRRRGIGKFLHSAKKFGKAFVGEIMNS-OH

MIC (Pseudomonas aeruginosa [16]): 50 µg/mL
MIC (Escherichia coli [17]): 5 µg/mL
MIC (Staphylococcus aureus [18]): 5 µg/mL
Compound: CC[C@H](C)[C@H](NC(=O)CNC(=O)CCN)C(=O)NCC(=O)N[C@@H](CCCCN)C(=O)N[C@@H](Cc1ccccc1)C(=O)N[C@@H](CC(C)C)C(=O)N[C@@H](Cc1c[nH]cn1)C(=O)N[C@@H](C)C(=O)N[C@@H](C)C(=O)N[C@@H](CCCCN)C(=O)N[C@@H](CCCCN)C(=O)N[C@@H](Cc1ccccc1)C(=O)N[C@@H](C)C(=O)N[C@@H](CCCCN)C(=O)N[C@@H](C)C(=O)N[C@@H](Cc1ccccc1)C(=O)N[C@H](C(=O)N[C@@H](C)C(=O)N[C@@H](CCC(=O)O)C(=O)N[C@H](C(=O)N[C@@H](CCSC)C(=O)N[C@@H](CC(N)=O)C(=O)N[C@@H](CO)C(N)=O)[C@@H](C)CC)C(C)C (H-[βAla]GIGKFLHAAKKFAKAFVAEIMNS-NH2)
